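Dose response: 5 concentrations. Exposure: 48 h. Format: 96-well plates. Endpoint: linear interpolation; highest concentration if not reached. GI50 = concentration required for 50% inhibition of growth.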 Calls of active or inactive are those of the source. Rule as the data show it: active = GI50 up to about 1.1 µM and inactive = higher.

Holding throughout (assay): inhibition of tumour cell growth, NCI panel, 48 h
Experiment [1] relates to NCI-H460.
Experiment [2] has as its system KM12.
In experiment [3] the test system is HT-29.
The subject of experiment [4] is K562.
The test system of experiment [5] is SK-MEL-28.
Experiment [6] concerns T47D.
For experiment [7], the system named is UO-31.
For experiment [8], the system named is A498.
In experiment [9] the test system is SR.
The test system of experiment [10] is MDA-N.
Experiment [11] relates to COLO 205.
Experiment [12] deals with NCI/ADR-RES.
The test system of experiment [13] is SK-MEL-5.
The test system of experiment [14] is RXF 393.
Experiment [15] has as its system OVCAR-8.
In experiment [16] the test system is NCI-H23.
For experiment [17], the system named is Hs-578T.
Experiment [18] relates to OVCAR-5.
The subject of experiment [19] is MDA-MB-231.
Experiment [20] deals with SF-539.

Regarding `ClC(Cl)(Cl)C1=N[C@H]2[C@H](Br)[C@@H]3O[C@@H](c4ccccc4)[C@H](c4ccccc4)O[C@@H]3[C@H]2O1`, the GI50 is 16 µM (inactive) in experiment [1]; 20.1 µM (inactive) in experiment [2]; 20.5 µM (inactive) in [3]; 21.2 µM (inactive) in experiment [4]; 20.3 µM (inactive) in experiment [5]; 30.2 µM (inactive) in [6]. Also, the GI50 was 20.7 µM (inactive) in [7]; 17.2 µM (inactive) in experiment [8]; 21.1 µM (inactive) in experiment [9]; 20.3 µM (inactive) in experiment [10]; 16.3 µM (inactive) in [11]; 25.7 µM (inactive) in [12]. Besides, the GI50 in [13] is 17.3 µM (inactive); in experiment [14] it was 20.5 µM (inactive); in [15] it was 17.6 µM (inactive); in experiment [16] it was 21 µM (inactive); in experiment [17], 23.8 µM (inactive); in [18] it was 18.9 µM (inactive). Also, the GI50 in experiment [19] is 23 µM (inactive).
As to `O=C1OC(c2ccccc2)N(C(=O)c2ccccc2)C1Cc1ccc(OCc2ccccc2)cc1` (centres undefined), the GI50 in experiment [1] was 60 µM (inactive); in experiment [20], > 100 µM (inactive); in experiment [4] it was > 100 µM (inactive); in experiment [5], > 100 µM (inactive); in experiment [6] it was > 100 µM (inactive); in experiment [7] it was 21.1 µM (inactive). The GI50 in [8] is 4.67 µM (inactive); in [9], > 100 µM (inactive); in experiment [10] it was > 100 µM (inactive); in experiment [11], > 100 µM (inactive); in experiment [12], 19.9 µM (inactive); in experiment [13], 43.8 µM (inactive). In addition, the GI50 is 94.8 µM (inactive) in [15]; 36.7 µM (inactive) in [16]; 35.6 µM (inactive) in experiment [17]; > 100 µM (inactive) in experiment [18]; 2.6 µM (inactive) in experiment [19].
With `CCOC1NC(=O)c2ccccc21` (centres undefined), the GI50 in experiment [1], in experiment [2], in experiment [3], in experiment [20], in experiment [4] and in [5] was > 100 µM (inactive) each time. Also, the GI50 in experiment [6], in experiment [7], in experiment [9], in [10], in [11] and in [12] was > 100 µM (inactive) each time. The GI50 in experiment [13], in experiment [14], in experiment [15], in [16], in experiment [17] and in experiment [18] was > 100 µM (inactive) in each case. Also, the GI50 in [19] was > 100 µM (inactive).
In the case of `O/N=C\c1c2c(cc3c1CCC3)CCC2`, the GI50 in [1], in experiment [2], in experiment [3], in experiment [20], in experiment [4] and in [5] was > 100 µM (inactive) in each case. Moreover, the GI50 was 49.5 µM (inactive) in [6]; > 100 µM (inactive) in experiment [7]; 34.1 µM (inactive) in experiment [8]; > 100 µM (inactive) in [9]; > 100 µM (inactive) in experiment [10]; > 100 µM (inactive) in [11]. Also, the GI50 in [12], in experiment [13], in experiment [15], in experiment [16], in [17] and in [18] was > 100 µM (inactive) in each case. Also, the GI50 in experiment [19] was > 100 µM (inactive).
As for `NC(=O)c1nnc2cc(F)ccc2c1N`, the GI50 in experiment [1], in experiment [2], in [3], in [20], in [4] and in experiment [6] was > 100 µM (inactive) throughout. Besides, the GI50 in experiment [7] is 67.3 µM (inactive); in experiment [8], 91.6 µM (inactive); in experiment [9], > 100 µM (inactive); in experiment [10], > 100 µM (inactive); in [11] it was > 100 µM (inactive); in [12], > 100 µM (inactive). The GI50 in experiment [13], in experiment [15], in experiment [16], in experiment [17], in [18] and in [19] was > 100 µM (inactive) throughout.
In the case of `O=[As](O)(O)c1ccc2nc3cc([As](=O)(O)O)ccc3nc2c1`, the GI50 in experiment [1], in experiment [2], in experiment [3], in experiment [4], in experiment [5] and in experiment [6] was > 100 µM (inactive) throughout. The GI50 in experiment [7], in experiment [8], in [9], in [10], in experiment [12] and in experiment [13] was > 100 µM (inactive) each time. Moreover, the GI50 in experiment [14], in [15], in [16], in experiment [17], in experiment [18] and in experiment [19] was > 100 µM (inactive) throughout.
Regarding `OC1(c2ccc(Cl)cc2)c2ccccc2C2=NCc3ccccc3CN21` (centres undefined), the GI50 in [1] is 11.2 µM (inactive); in [2], 4.7 µM (inactive); in experiment [3] it was 14.7 µM (inactive); in experiment [20], 7.13 µM (inactive); in [4], 2.68 µM (inactive); in experiment [5] it was 2.75 µM (inactive). The GI50 is 23.3 µM (inactive) in experiment [6]; 7.98 µM (inactive) in experiment [7]; 13.6 µM (inactive) in experiment [8]; 8.53 µM (inactive) in experiment [9]; 12.9 µM (inactive) in experiment [10]; 4.9 µM (inactive) in experiment [11]. Further, the GI50 in experiment [12] was 13.1 µM (inactive); in [13] it was 13.2 µM (inactive); in experiment [15] it was 9.55 µM (inactive); in [16], 6.97 µM (inactive); in experiment [17], 14.9 µM (inactive); in experiment [18], 13.1 µM (inactive). Besides, the GI50 in experiment [19] is 16.6 µM (inactive).
As for `C/C=C(/C)C(=O)O[C@H]1CCN2CC=C(COC(=O)[C@@](O)([C@H](C)OC)C(C)(C)O)[C@H]12`, the GI50 in experiment [1] is > 10 µM (inactive); in experiment [2], > 100 µM (inactive); in [3] it was > 100 µM (inactive); in experiment [20], > 100 µM (inactive); in [4], > 100 µM (inactive); in experiment [5] it was > 100 µM (inactive). Moreover, the GI50 in experiment [6], in experiment [7], in [8], in experiment [9], in experiment [10] and in experiment [11] was > 100 µM (inactive) in each case. Also, the GI50 in experiment [12], in experiment [13], in experiment [15], in experiment [16], in [17] and in [18] was > 100 µM (inactive) in each case. Moreover, in [19], the GI50 is > 100 µM (inactive).
In the case of `CC(=O)Nc1ccc2nncnc2c1`, the GI50 in experiment [1], in experiment [2], in experiment [3], in experiment [20], in experiment [4] and in experiment [5] was > 100 µM (inactive) in each case. Moreover, the GI50 in [6], in experiment [7], in experiment [8], in experiment [9], in experiment [10] and in [11] was > 100 µM (inactive) each time. The GI50 is > 100 µM (inactive) in experiment [12]; > 100 µM (inactive) in experiment [13]; > 10 µM (inactive) in [15]; > 100 µM (inactive) in experiment [16]; 77.6 µM (inactive) in [17]; > 100 µM (inactive) in [18]. Moreover, the GI50 in experiment [19] was > 100 µM (inactive).
`CCOP(=O)(CC(=O)C1CC1)OCC`: the GI50 in experiment [1], in [2], in [3], in experiment [20], in experiment [4] and in experiment [5] was > 100 µM (inactive) throughout. Besides, the GI50 in experiment [6], in experiment [7], in experiment [9], in experiment [10], in experiment [11] and in [12] was > 100 µM (inactive) each time. Moreover, the GI50 in [13] is > 100 µM (inactive); in [14], 0.01 µM (active); in experiment [15] it was > 100 µM (inactive); in experiment [16] it was > 100 µM (inactive); in experiment [17], > 100 µM (inactive); in experiment [18] it was > 100 µM (inactive). For the same compound, the GI50 in experiment [19] is > 100 µM (inactive).
As to `CCN(CC)c1ccc2cc(-c3nc(O)c4ccccc4n3)c(=N)oc2c1`, the GI50 in experiment [1], in experiment [2], in experiment [3], in [20], in experiment [4] and in [5] was > 100 µM (inactive) throughout. Also, the GI50 in experiment [6], in [7], in experiment [9], in experiment [10], in [11] and in [12] was > 100 µM (inactive) each time. Also, the GI50 in [13], in experiment [14], in experiment [15], in [17], in [18] and in experiment [19] was > 100 µM (inactive) in each case.

(Values after ChEMBL document CHEMBL1201862, “PubChem BioAssay data set” (2004).)
